The source of these data is patent US8889671B2, “Compounds and methods for treating bacterial infections” (AstraZeneca AB, priority 2013, dated 2014).

For orientation: IC50 means the midpoint of a concentration-inhibition curve. Lower therefore signals greater potency.

For one assay, the system named is Streptococcus pneumoniae. Nature of the assay: Susceptibility testing (MIC) Assay 1, broth microdilution. It counts as cell-based. On the procedure:
(§1) Minimum Inhibitory Concentrations (MICs) were determined by the broth microdilution method in accordance with the Clinical and Laboratory Standards Institute (CLSI) guidelines. In brief, organism suspensions were adjusted to a 0.5 McFarland standard to yield a final inoculum between 3×10^5 and 7×10^5 colony-forming units (CFU)/mL. Bacterial inocula were prepared for most organisms in sterile, cation adjusted Mueller-Hinton Broth (Beckton Dickinson). The streptococci were prepared as above in cation adjusted Mueller-Hinton Broth to which 2.5% lysed horse blood (Hema Resource & Supply Inc.) was added. An inoculum volume of 100 μL was added to wells (using a Tecan EVO robot) containing 2 μL of DMSO containing 2-fold serial dilutions of drug. All inoculated microdilution trays were incubated in ambient air at 35° C. for 18-24 hours. Following incubation, the lowest concentration of the drug that prevented visible growth as read at OD600 nm and confirmed by a visual read using a test reading mirror was recorded as the MIC. Performance of the assay was monitored by the use of laboratory quality-control strains and commercially available control compounds with defined MIC spectrums, in accordance with CLSI guidelines. Table 1 provides the MIC results (μM) of Examples 1-77 tested in Assay 1. Table 2 provides the MIC (μg/mL) results of Examples 78-80 tested in Assay 1.
Background: Dilution methods test growth across graded concentrations, often in twofold steps.

The subject of the next assay is Streptococcus pyogenes. The assay is described as above. The class given is cell-based. To be noted: Streptococcus pyogenes, Streptococcus pyrgenes, in vivo strain; read-out: Spy MIC. As to the method:
as §1

For a further assay, the system named is Staphylococcus aureus. The description is as above. It counts as cell-based. The conditions noted are these: Staphylococcus aureus. On the procedure:
as §1

In assay [1] the target is Escherichia coli DNA gyrase A/B tetramer (Escherichia coli (strain K12), UniProt P0AES4+P0AES6). Nature of the assay: DNA gyrase supercoiling activity fluorescence polarisation assay. To be noted: Eco Gyr FP Mean IC50, E. coli DNA gyrase supercoiling, 0.3 mM ATP. It counts as biochemical. As to the method:
In a black, 384-well polystyrene assay plate, 30 microliters/well of 5 nM Escherichia coli DNA gyrase A/B tetramer and 130 micrograms/mL of topologically relaxed plasmid containing the triplex-forming sequence
in an assay buffer consisting of 35 mM Tris-HCl (pH 7.5), 24 mM KCl, 4 mM MgCl2, 2 mM dithiothreitol, 1.8 mM spermidine, 5% (v/v) glycerol, 200 nM bovine serum albumin, 0.8% dimethylsulfoxide, and 0.3 mM ATP were incubated at ambient temperature for (typically 30 minutes) in the absence or presence of 5-10 different concentrations of test compound. The supercoiling reactions were quenched by the addition of 10 microliters/well of 40 nM oligodeoxynucleotide probe in 3× triplex-forming buffer consisting of 150 mM NaCl, and 150 mM sodium acetate at pH 3.5. The oligodeoxynucleotide probe was 5′-BODIPY-FL-labeled
After 60 minutes, the fluorescence anisotropy of the BODIPY-FL was measured in a Tecan Ultra plate reader, using 485 nm excitation and 535 nm emission filters equipped with polarizers. The IC50 was determined by nonlinear regression using two control reactions.
For orientation: Fluorescence polarisation rises when a labelled molecule tumbles more slowly, as on binding a larger partner.

A further assay concerns Haemophilus influenzae. Description: Susceptibility testing (MIC) Assay 2, broth microdilution. The class given is cell-based. To be noted: ATCC51907, Haemophilus influenzae, ATCC 51907, in vivo strain, read-out: Hin MIC. On the procedure:
(§2) Minimum Inhibitory Concentrations (MICs) were determined by the broth microdilution method in accordance with the Clinical and Laboratory Standards Institute (CLSI) guidelines. In brief, organism suspensions were adjusted to a 0.5 McFarland standard to yield a final inoculum between 3×10^5 and 7×10^5 colony-forming units (CFU)/mL. Bacterial inocula were generally prepared in sterile, cation adjusted Mueller-Hinton Broth (Becton Dickinson) which included Escherichia coli, Klebsiella pneumoniae, and Pseudomonas aeruginosa. Haemophilus influenzae bacterial inocula were prepared in sterile, cation adjusted Mueller-Hinton Broth (Becton Dickinson) containing 0.5% yeast extract (Becton Dickinson) plus 30 mL of 15 μg/mL Bovine Hematin stock (Sigma), and 3 mL of 15 μg/mL β-nicotinamide adenine dinucleotide (Sigma). Strains of Neisseria were tested for MICs using agar dilution methodology in accordance with CLSI guidelines. For broth microdilution testing, an inoculum volume of 100 μL was added to wells (using a Tecan EVO robot) containing 2 μL of DMSO containing 2-fold serial dilutions of drug. All inoculated microdilution panels were incubated in ambient air at 35° C. for 18-24 hours. Following incubation, the lowest concentration of the drug that prevented visible growth as read at OD600 nm and confirmed by a visual read using a test reading mirror was recorded as the MIC. Performance of the assay was monitored by the use of laboratory quality-control strains and commercially available control compounds with defined MIC spectrums, in accordance with CLSI guidelines. Table 3 provides the MIC results (μM) of Examples 1-77 tested in Assay 2. Table 4 provides the MIC (μg/mL) results of Examples 78-80 tested in Assay 2.

The test system of the next assay is Pseudomonas aeruginosa. Described as above. It counts as cell-based. The conditions noted are these: PAO1, read-out: Pae MIC. As to the method: as §2
For the next assay, the system named is Klebsiella pneumoniae. The description is as above. It counts as cell-based. To be noted: clinical isolate, mucoid, read-out: Kpn MIC. As to the method: as §2
For a further assay, the system named is Escherichia coli. The assay is described as above. The class given is cell-based. The conditions noted are these: K12, read-out: Eco MIC. On the procedure:
as §2

Where [2] appears, read: in vivo strain (footnote b), read-out: Spn(b) MIC.
Setting [3] is: in vivo strain (footnote c), read-out: Spn(c) MIC.
[4] abbreviates: Staphylococcus aureus in vivo strain, MSQS, read-out: Sau(d) MIC.
[5] abbreviates: in vivo strain, MRQR, read-out: Sau(e) MIC.

Structures are written as SMILES. Values after ≈ are worked out from the molar mass of the structure shown. Like-named read-outs stand apart in the source and are kept apart here.

With `COC[C@@H]1CN(c2noc3c(F)c4c(cc23)CC2(C(=O)NC(=O)NC2=O)[C@H]2[C@H](C)O[C@H](C)CN42)C(=O)O1` [Example 35], the MIC in the assay with Streptococcus pneumoniae (setting [2]) is 0.39 µM (≈ 0.202 µg/mL); in the assay on Streptococcus pneumoniae (setting [3]), 0.39 µM (≈ 0.202 µg/mL); in the assay with Streptococcus pyogenes, 0.2 µM (≈ 0.103 µg/mL); in the assay on Staphylococcus aureus (setting [4]) it was below 0.2 µM; with Staphylococcus aureus (setting [5]) it was 1.6 µM (≈ 0.828 µg/mL); in the assay on Staphylococcus aureus (serum, read-out: Sau(f) MIC), 0.39 µM (≈ 0.202 µg/mL). Besides, the MIC in the assay with Haemophilus influenzae was 0.78 µM (≈ 0.404 µg/mL); in the assay with Pseudomonas aeruginosa, above 200 µM; in the assay on Klebsiella pneumoniae it was above 200 µM; in the assay on Escherichia coli, 50 µM (≈ 25.9 µg/mL). The same compound had an IC50 in assay [1] of 0.31 µM.
`C[C@@H]1CN2c3c(cc4c(N5C(=O)OC[C@@H]5[C@@H](O)CO)noc4c3F)CC3(C(=O)NC(=O)NC3=O)[C@H]2[C@H](C)O1` [Example 72]: the MIC turned out to be 0.78 µM (≈ 0.416 µg/mL) in the assay on Streptococcus pneumoniae (setting [2]); 3.1 µM (≈ 1.65 µg/mL) with Streptococcus pneumoniae (setting [3]); 0.39 µM (≈ 0.208 µg/mL) in the assay with Streptococcus pyogenes; 25 µM (≈ 13.3 µg/mL) in the assay with Staphylococcus aureus (setting [4]); 50 µM (≈ 26.7 µg/mL) in the assay on Staphylococcus aureus (setting [5]); 25 µM (≈ 13.3 µg/mL) with Staphylococcus aureus (serum, read-out: Sau(f) MIC). For the same compound, the MIC was 3.1 µM (≈ 1.65 µg/mL) in the assay with Haemophilus influenzae, above 200 µM in the assay with Pseudomonas aeruginosa, above 200 µM in the assay with Klebsiella pneumoniae and above 200 µM with Escherichia coli. Further, half-maximal inhibition in assay [1] (IC50) required 0.29 µM.
As to `C[C@@H]1CN2c3c(cc4c(N5C(=O)OC[C@@H]5CCCF)noc4c3Cl)CC3(C(=O)NC(=O)NC3=O)[C@H]2[C@H](C)O1` [Example 34, (2R,4S,4aS)-11-Chloro-8-((S)-4-(3-fluoropropyl)-2-oxooxazolidin-3-yl)-2,4-dimethyl-2,4,4a,6-tetrahydro-1H,1′H-spiro[isoxazolo[4,5-g][1,4]oxazino[4,3-a]quinoline-5,5′-pyrimidine]-2′,4′,6′(3′H)-trione], the MIC with Streptococcus pneumoniae (setting [2]) was 0.39 µM (≈ 0.214 µg/mL); in the assay on Streptococcus pneumoniae (setting [3]), 0.39 µM (≈ 0.214 µg/mL); with Streptococcus pyogenes, 0.39 µM (≈ 0.214 µg/mL); with Staphylococcus aureus (setting [4]), below 0.2 µM; with Staphylococcus aureus (setting [5]) it was 0.78 µM (≈ 0.429 µg/mL); with Staphylococcus aureus (serum, read-out: Sau(f) MIC), 1.6 µM (≈ 0.88 µg/mL). The MIC in the assay on Haemophilus influenzae was 0.39 µM (≈ 0.214 µg/mL); in the assay with Pseudomonas aeruginosa, above 200 µM; with Klebsiella pneumoniae, 200 µM (≈ 110 µg/mL); in the assay with Escherichia coli, 25 µM (≈ 13.7 µg/mL). The compound also displayed an IC50 in assay [1] of 0.23 µM.
As for `C[C@@H]1CN2c3c(cc4c(N5C(=O)OC[C@H]5c5ccccc5)noc4c3F)CC3(C(=O)NC(=O)NC3=O)[C@H]2[C@H](C)O1` [Example 8, (2R,4S,4aS)-11-Fluoro-2,4-dimethyl-8-[(4R)-2-oxo-4-phenyl-1,3-oxazolidin-3-yl]-1,2,4,4a-tetrahydro-2′H,6H-spiro[1,4-oxazino[4,3-a][1,2]oxazolo[4,5-g]quinoline-5,5′-pyrimidine]-2′,4′,6′(1′H,3′H)-trione], the MIC with Streptococcus pneumoniae (setting [2]) was 50 µM (≈ 27.5 µg/mL); with Streptococcus pneumoniae (setting [3]), 50 µM (≈ 27.5 µg/mL); with Streptococcus pyogenes it was 12 µM (≈ 6.59 µg/mL); in the assay with Staphylococcus aureus (setting [4]), 6.2 µM (≈ 3.41 µg/mL); in the assay on Staphylococcus aureus (setting [5]), 12 µM (≈ 6.59 µg/mL); in the assay on Staphylococcus aureus (serum, read-out: Sau(f) MIC) it was 200 µM (≈ 110 µg/mL). Also, the MIC in the assay with Haemophilus influenzae is 12 µM (≈ 6.59 µg/mL); in the assay on Pseudomonas aeruginosa, above 200 µM; in the assay with Klebsiella pneumoniae it was above 200 µM; in the assay with Escherichia coli, above 200 µM. Half-maximal inhibition in assay [1] (IC50) was put at 7.3 µM.
For `C[C@@H]1CN2c3c(cc4c(N5C(=O)O[C@@H](C)[C@H]5C)noc4c3F)CC3(C(=O)NC(=O)NC3=O)[C@H]2[C@H](C)O1` [Example 24], the MIC in the assay with Streptococcus pneumoniae (setting [2]) stood at 1.6 µM (≈ 0.802 µg/mL); in the assay on Streptococcus pneumoniae (setting [3]) it was 1.6 µM (≈ 0.802 µg/mL); with Streptococcus pyogenes, 0.78 µM (≈ 0.391 µg/mL); in the assay on Staphylococcus aureus (setting [4]), 0.39 µM (≈ 0.196 µg/mL); with Staphylococcus aureus (setting [5]), 1.6 µM (≈ 0.802 µg/mL); with Staphylococcus aureus (serum, read-out: Sau(f) MIC), 1.6 µM (≈ 0.802 µg/mL). The MIC was 3.1 µM (≈ 1.55 µg/mL) with Haemophilus influenzae, above 200 µM in the assay with Pseudomonas aeruginosa, above 200 µM in the assay on Klebsiella pneumoniae and 50 µM (≈ 25.1 µg/mL) with Escherichia coli. In assay [1], this compound yielded an IC50 above 2.1 µM.
